pEC50, pIC50: −log10 of the molar value.
Assays:
[1] = biological target: Voltage-gated inwardly rectifying potassium channel KCNH2 (Homo sapiens, UniProt Q12809); test: Inhibition of human ERG at holding potential of -80 mV to +40 mV
Rattus norvegicus [2] = test: AUC (0 to infinity) in Sprague-Dawley rat at 1 mg/kg, iv; format: ADME, organism-based, Plasma; design: time infinity, dose 1 mg/kg, route intravenous; conditions: in vivo
Cytochrome P450 2D6 = Cytochrome P450 2D6 (Homo sapiens, UniProt P10635); test: Inhibition of CYP2D6 in human liver microsomes after 30 mins; format: ADME, Microsome
Cytochrome P450 3A4 = Cytochrome P450 3A4 (Homo sapiens, UniProt P08684); test: Inhibition of CYP3A4 in human liver microsomes after 30 mins; format: ADME, Microsome
[3] = Cmax in Sprague-Dawley rat at 1 mg/kg, iv; format: ADME, organism-based; design: dose 1 mg/kg, route intravenous; conditions: in vivo
[4] = Cmax in Sprague-Dawley rat at 5 mg/kg, po; format: ADME, organism-based; design: dose 5 mg/kg, route oral; conditions: in vivo
[5] = Mutagenic activity in Salmonella Typhimurium TA100 assessed as number of spontaneous and drug-induced revertants after 48 hrs by Ames test; format: toxicity; conditions: salmonella enterica subsp. enterica serovar typhimurium
[6] = Oral bioavailability in Sprague-Dawley rat at 5 mg/kg, po; format: ADME, organism-based; conditions: in vivo
Nucleic Acid = test: Induction of DNA damage up to 50 uM after 2 hrs by comet assay; format: nucleic-acid assay
[7] = Clearance in Sprague-Dawley rat at 1 mg/kg, iv; format: ADME, organism-based; design: dose 1 mg/kg, route intravenous; conditions: in vivo
Rattus norvegicus [8] = test: Antiobesity activity in diet-induced obesity Sprague-Dawley rat model assessed as reduction of body weight administered at 10 mg/kg, po qd for 13 days; format: functional; design: scale not given: the % may be the effect or the level left
[9] = Half life in Sprague-Dawley rat at 5 mg/kg, po; format: ADME, organism-based; design: dose 5 mg/kg, route oral; conditions: in vivo
Cytochrome P450 1A2 = biological target: T1, Cytochrome P450 1A2 (Homo sapiens, UniProt P05177); test: Inhibition of CYP1A2 in human liver microsomes after 30 mins; format: ADME, Microsome
T1 sequence (P05177 whole entry): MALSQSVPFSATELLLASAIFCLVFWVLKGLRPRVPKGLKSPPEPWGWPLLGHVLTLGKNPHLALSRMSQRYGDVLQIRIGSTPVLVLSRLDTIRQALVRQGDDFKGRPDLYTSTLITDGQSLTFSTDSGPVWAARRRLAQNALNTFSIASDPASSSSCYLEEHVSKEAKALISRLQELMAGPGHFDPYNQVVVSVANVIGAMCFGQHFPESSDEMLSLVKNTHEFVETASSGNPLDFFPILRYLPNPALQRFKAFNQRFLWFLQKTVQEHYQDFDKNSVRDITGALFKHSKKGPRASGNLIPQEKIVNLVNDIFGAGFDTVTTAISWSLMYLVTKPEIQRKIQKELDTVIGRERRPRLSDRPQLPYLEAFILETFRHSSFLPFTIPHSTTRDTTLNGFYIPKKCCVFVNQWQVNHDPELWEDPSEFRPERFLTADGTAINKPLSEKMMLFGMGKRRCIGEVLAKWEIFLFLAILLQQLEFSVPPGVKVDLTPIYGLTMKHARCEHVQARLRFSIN

Mus musculus [10] = test: Antiobesity activity in diet-induced obesity C57BL/6 mouse model assessed as reduction of body weight at 10 mg/kg, po qd for 14 days; format: functional; design: scale not given: the % may be the effect or the level left
[11] = Tmax in Sprague-Dawley rat at 5 mg/kg, po; format: ADME, organism-based; design: dose 5 mg/kg, route oral; conditions: in vivo
Rattus norvegicus [12] = test: Clast in Sprague-Dawley rat at 1 mg/kg, iv; format: ADME, organism-based; design: dose 1 mg/kg, route intravenous; conditions: in vivo
[13] = Half life in Sprague-Dawley rat at 1 mg/kg, iv; format: ADME, organism-based; design: dose 1 mg/kg, route intravenous; conditions: in vivo
Rattus norvegicus [14] = test: AUC (0 to infinity) in Sprague-Dawley rat at 5 mg/kg, po; format: ADME, organism-based, Plasma; design: time infinity, dose 5 mg/kg, route oral; conditions: in vivo
Cannabinoid receptor 1 = Cannabinoid receptor 1 (Rattus norvegicus, UniProt P20272)
Description: Displacement of [3H]CP-55940 from CB1 receptor in Sprague-Dawley rat cerebellum after 1 hr by liquid scintillation counting

Cannabinoid receptor 2 = Cannabinoid receptor 2 (Homo sapiens, UniProt P34972); test: Displacement of [3H]WIN-55212-2 from human CB2 receptor expressed in CHO-K1 cells after 1 hr by liquid scintillation counting; format: cell-based
[15] = Selectivity ratio of IC50 for human CB2 receptor to IC50 for CB1 receptor in Sprague-Dawley rat cerebellum; format: tissue-based
Cytochrome P450 2C9 = Cytochrome P450 2C9 (Homo sapiens, UniProt P11712); test: Inhibition of CYP2C9 in human liver microsomes after 30 mins; format: ADME, Microsome
[16] = Ratio of drug level in brain to plasma in Sprague-Dawley rat; format: ADME
Rattus norvegicus [17] = test: Clast in Sprague-Dawley rat at 5 mg/kg, po; format: ADME, organism-based; design: dose 5 mg/kg, route oral; conditions: in vivo
Mus musculus [18] = test: Antiobesity activity in diet-induced obesity C57BL/6 mouse model assessed as reduction of body weight at 3 mg/kg, po qd for 13 days; format: functional; design: scale not given: the % may be the effect or the level left
Vero = test: Cytotoxicity against african green monkey Vero cells; format: cell-based; conditions: Chlorocebus sabaeus
HEK293 = test: Cytotoxicity against human HEK293 cells; format: cell-based
HCT-116 = test: Cytotoxicity against human HCT116 cells; format: cell-based
[19] = Cytotoxicity against human HuH7 cells; format: cell-based; conditions: Huh-7

Chain of Cytochrome P450 2C9 (P11712 whole entry): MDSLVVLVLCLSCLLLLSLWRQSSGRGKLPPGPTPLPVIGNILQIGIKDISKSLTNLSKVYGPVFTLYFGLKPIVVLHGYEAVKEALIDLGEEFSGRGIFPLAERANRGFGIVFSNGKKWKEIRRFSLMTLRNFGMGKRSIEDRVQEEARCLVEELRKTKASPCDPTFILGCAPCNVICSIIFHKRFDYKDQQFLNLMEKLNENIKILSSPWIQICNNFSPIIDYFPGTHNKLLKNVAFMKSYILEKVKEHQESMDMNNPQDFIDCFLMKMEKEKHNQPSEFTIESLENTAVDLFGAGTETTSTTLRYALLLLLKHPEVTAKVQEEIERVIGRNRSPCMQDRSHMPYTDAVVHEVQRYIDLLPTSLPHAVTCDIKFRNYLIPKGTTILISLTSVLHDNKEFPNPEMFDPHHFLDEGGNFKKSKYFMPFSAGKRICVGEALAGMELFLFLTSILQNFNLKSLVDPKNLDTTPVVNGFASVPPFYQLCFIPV
Chain of Cannabinoid receptor 2 (P34972 whole entry): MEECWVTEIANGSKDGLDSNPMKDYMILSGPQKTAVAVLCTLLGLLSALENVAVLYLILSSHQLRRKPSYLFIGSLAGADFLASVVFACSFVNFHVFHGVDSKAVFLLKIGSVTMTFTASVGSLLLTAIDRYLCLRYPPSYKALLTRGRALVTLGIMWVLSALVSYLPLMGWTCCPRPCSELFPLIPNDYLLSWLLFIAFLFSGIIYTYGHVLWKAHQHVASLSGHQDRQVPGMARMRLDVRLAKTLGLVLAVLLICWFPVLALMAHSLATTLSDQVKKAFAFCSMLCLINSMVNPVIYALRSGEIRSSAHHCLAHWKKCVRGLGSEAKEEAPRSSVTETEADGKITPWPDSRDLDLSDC
Chain of Voltage-gated inwardly rectifying potassium channel KCNH2 (Q12809 whole entry): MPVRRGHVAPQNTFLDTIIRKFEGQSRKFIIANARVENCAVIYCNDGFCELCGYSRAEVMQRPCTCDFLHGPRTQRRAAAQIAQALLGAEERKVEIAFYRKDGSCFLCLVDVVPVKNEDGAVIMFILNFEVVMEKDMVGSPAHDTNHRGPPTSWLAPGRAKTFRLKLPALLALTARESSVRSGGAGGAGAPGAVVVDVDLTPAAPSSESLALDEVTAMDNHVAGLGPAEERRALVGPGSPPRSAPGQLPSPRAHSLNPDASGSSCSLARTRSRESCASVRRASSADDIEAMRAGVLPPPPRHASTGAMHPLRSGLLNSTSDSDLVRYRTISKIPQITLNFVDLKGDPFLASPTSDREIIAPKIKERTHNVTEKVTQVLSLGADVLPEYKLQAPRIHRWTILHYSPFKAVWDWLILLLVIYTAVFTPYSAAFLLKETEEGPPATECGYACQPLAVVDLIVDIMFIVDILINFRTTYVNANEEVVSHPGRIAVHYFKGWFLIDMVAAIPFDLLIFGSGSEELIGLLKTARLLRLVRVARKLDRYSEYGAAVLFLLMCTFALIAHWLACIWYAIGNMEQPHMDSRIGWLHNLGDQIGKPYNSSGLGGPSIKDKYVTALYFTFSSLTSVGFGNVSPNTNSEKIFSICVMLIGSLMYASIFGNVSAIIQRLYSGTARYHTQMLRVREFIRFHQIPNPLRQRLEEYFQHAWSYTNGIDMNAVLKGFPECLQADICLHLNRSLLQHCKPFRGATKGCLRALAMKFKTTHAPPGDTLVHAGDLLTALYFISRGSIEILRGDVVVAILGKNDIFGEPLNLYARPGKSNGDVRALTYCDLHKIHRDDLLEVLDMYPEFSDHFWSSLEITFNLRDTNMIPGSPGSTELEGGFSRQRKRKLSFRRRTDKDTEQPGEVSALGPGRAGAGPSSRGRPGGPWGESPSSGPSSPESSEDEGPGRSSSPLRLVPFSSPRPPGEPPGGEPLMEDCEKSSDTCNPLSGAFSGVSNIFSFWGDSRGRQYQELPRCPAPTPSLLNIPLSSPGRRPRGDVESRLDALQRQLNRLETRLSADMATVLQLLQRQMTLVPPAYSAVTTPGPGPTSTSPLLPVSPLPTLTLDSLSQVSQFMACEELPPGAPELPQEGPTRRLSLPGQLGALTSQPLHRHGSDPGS
Chain of Cytochrome P450 3A4 (P08684 whole entry): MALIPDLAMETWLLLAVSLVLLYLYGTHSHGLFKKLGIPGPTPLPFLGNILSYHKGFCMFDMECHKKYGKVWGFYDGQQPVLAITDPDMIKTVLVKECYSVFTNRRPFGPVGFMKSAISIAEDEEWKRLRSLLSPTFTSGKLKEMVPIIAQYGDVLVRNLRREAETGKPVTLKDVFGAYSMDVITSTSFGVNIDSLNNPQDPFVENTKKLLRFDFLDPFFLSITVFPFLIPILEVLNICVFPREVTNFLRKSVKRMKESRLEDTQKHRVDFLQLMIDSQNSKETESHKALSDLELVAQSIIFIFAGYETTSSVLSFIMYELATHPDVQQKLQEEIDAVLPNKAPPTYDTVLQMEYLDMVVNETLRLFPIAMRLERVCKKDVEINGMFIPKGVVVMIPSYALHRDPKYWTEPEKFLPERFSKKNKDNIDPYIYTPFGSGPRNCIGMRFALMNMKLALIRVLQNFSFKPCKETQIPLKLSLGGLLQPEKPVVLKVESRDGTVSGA
Chain of Cannabinoid receptor 1 (P20272 whole entry): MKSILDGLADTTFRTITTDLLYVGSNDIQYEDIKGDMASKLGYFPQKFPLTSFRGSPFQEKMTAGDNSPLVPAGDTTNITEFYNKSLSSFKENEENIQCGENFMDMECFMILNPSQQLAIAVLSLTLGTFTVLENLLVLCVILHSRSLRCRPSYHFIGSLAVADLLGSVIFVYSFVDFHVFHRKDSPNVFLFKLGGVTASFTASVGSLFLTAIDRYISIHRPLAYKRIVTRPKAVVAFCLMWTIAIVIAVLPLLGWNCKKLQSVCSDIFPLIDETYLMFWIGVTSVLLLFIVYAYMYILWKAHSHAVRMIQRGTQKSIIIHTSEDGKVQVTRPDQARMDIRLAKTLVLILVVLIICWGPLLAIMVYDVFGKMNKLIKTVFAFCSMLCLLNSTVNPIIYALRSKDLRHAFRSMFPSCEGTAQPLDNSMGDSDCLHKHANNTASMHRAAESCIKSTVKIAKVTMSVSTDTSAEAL
Chain of Cytochrome P450 2D6 (P10635 whole entry): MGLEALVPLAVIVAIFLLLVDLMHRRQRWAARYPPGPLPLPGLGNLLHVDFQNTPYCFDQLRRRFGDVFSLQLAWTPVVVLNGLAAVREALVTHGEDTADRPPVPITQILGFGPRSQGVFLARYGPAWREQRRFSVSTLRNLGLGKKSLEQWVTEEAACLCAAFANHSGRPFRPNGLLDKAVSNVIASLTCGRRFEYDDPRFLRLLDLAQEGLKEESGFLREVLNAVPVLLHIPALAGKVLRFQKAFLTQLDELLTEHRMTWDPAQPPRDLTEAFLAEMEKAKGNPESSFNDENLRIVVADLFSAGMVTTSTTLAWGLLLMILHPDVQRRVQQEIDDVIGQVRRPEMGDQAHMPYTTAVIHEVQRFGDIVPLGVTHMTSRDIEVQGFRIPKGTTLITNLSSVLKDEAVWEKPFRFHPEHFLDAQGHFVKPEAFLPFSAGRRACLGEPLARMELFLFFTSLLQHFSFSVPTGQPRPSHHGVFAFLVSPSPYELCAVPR

SMILES	Activity (Mus musculus [10])	pIC50 (Cannabinoid receptor 1)	pIC50 (Cannabinoid receptor 2)	Ratio IC50 [15]	further results
Cc1c(C(=O)NN2CCCCC2)nn(-c2ccc(Cl)cc2Cl)c1-c1ccc(Cl)cc1 [RIMONABANT]	18.02%				pIC50 [1]: 5.32; AUC (Rattus norvegicus [2]): 12.59 min/µg/mL; pIC50 (Cytochrome P450 2D6): < 4.70; pIC50 (Cytochrome P450 3A4): < 4.70; Cmax [3]: 300 ng/mL; Cmax [4]: 290 ng/mL; Activity [5]: Non-toxic; bioavailability [6]: 53.1%; Activity (Nucleic Acid): Non-toxic; clearance [7]: 82.4 mL/min/kg; Activity (Rattus norvegicus [8]): 10.61%; half-life [9]: 8.23 h; pIC50 (Cytochrome P450 1A2): < 4.70; Tmax [11]: 0.5 h; Clast (Rattus norvegicus [12]): 10 ng/mL; half-life [13]: 3.09 h; AUC (Rattus norvegicus [14]): 33.4 min/µg/mL
FC(F)(F)c1ccccc1-n1nc(-c2nnc(C3(C(F)(F)F)CCC3)s2)c(Cn2cncn2)c1-c1ccc(Br)cc1		8.36	7.56	6.3	
CC1(c2nnc(-c3nn(-c4ccc(Cl)cc4Cl)c(-c4ccc(Cl)cc4)c3Cn3cncn3)s2)CC1	23.68%	8.62			
Clc1ccc(C2(c3nnc(-c4nn(-c5ccc(Cl)cc5Cl)c(-c5ccc(Br)cc5)c4Cn4cncn4)s3)CC2)cc1	23.68%	9.06			
CC(C)(C)c1nnc(-c2nn(-c3ccc(Cl)cc3Cl)c(-c3ccc(Br)cc3)c2Cn2cncn2)s1	23.68%	8.81	6.37		pIC50 (Cytochrome P450 2D6): < 4.70; pIC50 (Cytochrome P450 3A4): < 4.70; Activity (Nucleic Acid): Non-toxic; pIC50 (Cytochrome P450 2C9): 5.59; pIC50 (Cytochrome P450 1A2): 5.57
FC(F)(F)C1(c2nnc(-c3nn(-c4ccccc4Cl)c(-c4ccc(Br)cc4)c3Cn3cncn3)s2)CCC1		9.07	7.13	87	
FC(F)(F)C1(c2nnc(-c3nn(-c4ccccc4Cl)c(-c4ccc(Cl)cc4)c3Cn3cncn3)s2)CC1	23.68%	8.78			
FC(F)(F)c1ccccc1-n1nc(-c2nnc(C3(C(F)(F)F)CCC3)s2)c(Cn2cncn2)c1-c1ccc(Cl)cc1	23.68%	8.19	7.11	11.8	
Clc1ccc(-c2c(Cn3cncn3)c(-c3nnc(C4(c5ccc(Cl)cc5)CC4)s3)nn2-c2ccccc2Cl)cc1	23.68%	9.02	6.58	274	
FC(F)(F)C1(c2nnc(-c3nn(-c4ccc(Cl)cc4Cl)c(-c4ccc(Cl)cc4)c3Cn3cncn3)s2)CC1	23.68%		5.44	1590	
Clc1ccc(-c2c(Cn3cncn3)c(-c3nnc(C4(c5ccc(Cl)cc5)CC4)s3)nn2-c2ccc(Cl)cc2Cl)cc1	23.68%				
Clc1ccc(-c2c(Cn3cncn3)c(-c3nnc(C4(c5ccccc5)CC4)s3)nn2-c2ccc(Cl)cc2Cl)cc1	23.68%				
FC(F)(F)C1(c2nnc(-c3nn(-c4ccccc4Cl)c(-c4ccc(Cl)cc4)c3Cn3cncn3)s2)CCC1	23.68%	9.00			
FC(F)(F)C1(c2nnc(-c3nn(-c4ccccc4Cl)c(-c4ccc(Br)cc4)c3Cn3cncn3)s2)CC1		9.00	6.91	125	
Clc1ccc(-n2nc(-c3nnc(C4(c5ccccc5)CC4)s3)c(Cn3cncn3)c2-c2ccc(Br)cc2)c(Cl)c1	23.68%	8.65			
CC(C)(C)c1nnc(-c2nn(-c3ccccc3Cl)c(-c3ccc(Cl)cc3)c2Cn2cncn2)s1	23.68%				
FC(F)(F)C1(c2nnc(-c3nn(-c4ccc(Cl)cc4Cl)c(-c4ccc(Br)cc4)c3Cn3cncn3)s2)CCC1	23.68%	8.49			
CC(C)(C)c1nnc(-c2nn(-c3ccc(Cl)cc3Cl)c(-c3ccc(Cl)cc3)c2Cn2cncn2)s1	23.68%	8.76	5.94	659	
C[C@H](NC(=O)C(C)(C)Oc1ccc(C(F)(F)F)cn1)[C@@H](Cc1ccc(Cl)cc1)c1cccc(C#N)c1 [TARANABANT]	29.55%				pIC50 [1]: 4.85; AUC (Rattus norvegicus [2]): 24.75 min/µg/mL; pIC50 (Cytochrome P450 2D6): 6.23; Cmax [3]: 470 ng/mL; BPR [16]: 52%; Cmax [4]: 360 ng/mL; Activity [5]: Non-toxic; bioavailability [6]: 67.6%; Activity (Nucleic Acid): Non-toxic; clearance [7]: 40.8 mL/min/kg; Activity (Rattus norvegicus [8]): 17.16%; half-life [9]: 14.8 h; Clast (Rattus norvegicus [17]): 20 ng/mL; pIC50 (Cytochrome P450 2C9): 6.03; pIC50 (Cytochrome P450 1A2): < 4.70; Tmax [11]: 0.5 h; Clast (Rattus norvegicus [12]): 10 ng/mL; half-life [13]: 2.76 h; AUC (Rattus norvegicus [14]): 83.64 min/µg/mL
FC(F)(F)C1(c2nnc(-c3nn(-c4ccc(Cl)cc4Cl)c(-c4ccc(Br)cc4)c3Cn3cncn3)s2)CC1	23.68%	9.00			
Cc1ccc(C2(c3nnc(-c4nn(-c5ccc(Cl)cc5Cl)c(-c5ccc(Cl)cc5)c4Cn4cncn4)s3)CC2)cc1	23.68%				
CC1(c2nnc(-c3nn(-c4ccc(Cl)cc4Cl)c(-c4ccc(Br)cc4)c3Cn3cncn3)s2)CC1	23.68%	8.54			
FC(F)(F)C1(c2nnc(-c3nn(-c4ccc(Cl)cc4Cl)c(-c4ccc(Cl)cc4)c3Cn3cncn3)s2)CCC1	23.68%		6.30	175	pIC50 [1]: < 5.00; Activity (Mus musculus [18]): 34.45%; pEC50 (Vero): < 4.00; pEC50 (HEK293): < 4.00; pIC50 (Cytochrome P450 2D6): < 4.70; pIC50 (Cytochrome P450 3A4): < 4.70; Activity [5]: Non-toxic; pEC50 (HCT-116): < 4.00; Activity (Nucleic Acid): Non-toxic; Activity (Rattus norvegicus [8]): 14.43%; pIC50 (Cytochrome P450 2C9): < 4.70; pIC50 (Cytochrome P450 1A2): < 4.70; pEC50 [19]: < 4.00
Cc1ccc(C2(c3nnc(-c4nn(-c5ccc(Cl)cc5Cl)c(-c5ccc(Br)cc5)c4Cn4cncn4)s3)CC2)cc1	23.68%	8.56			

— ChEMBL document CHEMBL1221281, “Discovery of 2-(4-((1H-1,2,4-triazol-1-yl)methyl)-5-(4-bromophenyl)-1-(2-chlorophenyl)-1H-pyrazol-3-yl)-5-tert-butyl-1,3,4-thiadiazole (GCC2680) as a potent, selective and orally efficacious cannabinoid-1 receptor antagonist” (Bioorg Med Chem, 2010)
